Experimental findings from PubChem BioAssay (NCI) are described below.

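Dose response: 5 concentrations. Exposure: 48 h. Format: 96-well plates. Endpoint: linear interpolation; highest concentration if not reached. GI50 marks 50% less growth. TGI: concentration producing complete growth inhibition.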 *1 amine or outer side, *2 acyl side, *3 side chain or, on linkers, in order; H or OH if unused. Where a SMILES comes first, the peptide text is derived from it. Bridges are numbered along the chain shown (N, C = ends). [ ]: non-standard residue; d: D form. The star is where a group is joined. ξ: configuration not given here. Phe(3,5-F2) = N[C@@H](Cc1cc(F)cc(F)c1)C(=O)O; ξThr(3S) = C[C@H](O[*:3])C(N[*:1])C(=O)[*:2]; X25 = C[C@H]1OCCN([*:1])[C@@H]1C(=O)[*:2]; Phe(3-F) = N[C@@H](Cc1cccc(F)c1)C(=O)O; Pro(4R-Me) = C[C@H]1CN[C@H](C(=O)O)C1; aThr = C[C@H](O)[C@H](N)C(=O)O; X24 = O=S(=O)(F)Oc1ccc(N*)cc1; Pip = O=C(O)[C@@H]1CCCCN1; X8 = CCc1ccc(N*)c(F)c1; CO = O=C([*:1])[*:2] A value given as a limit tells only on which side of the number the result lay.

The experiment deals with MDA-MB-468 breast. Description: DTP human tumour cell line panel, 48 h.
For orientation: GI50 means the concentration giving 50% growth inhibition. For orientation: TGI means the concentration giving total growth inhibition. Read a low TGI as greater sensitivity of the cells. `O=C(Nc1nc2ccc(S(=O)(=O)Nc3ccc(C4(C(F)(F)F)CC4)cc3)cc2[nH]1)c1cnccn1`: the GI50 is 515 nM and the concentration for total growth inhibition (TGI) came to 5740 nM.
On the same counts, the results for `CCc1ccc(NC(=O)N[C@@H](Cc2cccc(F)c2)C(=O)N[C@@H]2C(=O)N3CCC[C@H]3C(=O)N3CCCC[C@H]3C(=O)N[C@@H](C)C(=O)N3C[C@H](C)C[C@H]3C(=O)O[C@H]2C)c(F)c1` ({X8-CO}-[Phe(3-F)][aThr]P[Pip]A[Pro(4R-Me)]; ester 2-C) are 129 nM and 799 nM.
For `CN(C)CCNC(=O)Nc1ccc(N(C)c2ccnc(Nc3ccc(CS(C)(=O)=O)cc3)n2)cc1`, in that order: greater than 13300 nM and greater than 25000 nM.
In the case of `CN(C)C1C(=O)C(C(N)=O)=C(O)C2(O)C(=O)C3=C(O)c4c(O)cccc4C(C)(O)C3CC12.[Cl][Sb]([Cl])[Cl]` (centres undefined), the GI50 is 2500 nM and the TGI was found to be 8830 nM.
For `S=C(Sc1ccc(Cl)cc1)Sc1ccc(Cl)cc1`, in that order: 2300 nM and 6900 nM.
`CCN1C(=O)N(CC)C2C1NC(=S)N2/N=C/C=C/c1ccccc1` (centres undefined): the 50% growth inhibitory concentration (GI50) is 54.6 nM.
On to `CO[C@H]1C(=O)[C@]2(C)[C@@H](OC)C[C@H]3OC[C@@]3(OC(C)=O)[C@H]2[C@H](OC(=O)c2ccccc2)[C@]2(O)C[C@H](OC(=O)[C@H](O)[C@@H](NC(=O)OC(C)(C)C)c3ccccc3)C(C)=C1C2(C)C`, for which the GI50 was less than 10 nM and the TGI worked out at 419 nM.
On the same counts, the results for `CC[n+]1c(-c2ccccc2)c2cc(N)ccc2c2ccc(N)cc21` are 160 nM and 609 nM.
For the compound `N#Cc1cc(F)cc(Oc2ccc(S(=O)(=O)C(F)F)c3c2CC(F)(F)[C@H]3O)c1`, the GI50 is 16600 nM and the TGI was found to be 66900 nM.
On the same counts, the results for `O=C(Nc1ccc(-n2cc(-c3ccncc3)c(-c3ccc(O)c(Cl)c3)n2)cc1)Nc1cc(C(F)(F)F)cc(C(F)(F)F)c1` are 3280 nM and 13200 nM.
For `C/C(=C/CCC(C)[C@@H]1CC[C@]2(C)C3=C(CC[C@@]12C)[C@@]1(C)CCC(=O)C(C)(C)[C@@H]1CC3)C(=O)O` (some centres undefined), in that order: 1110 nM and 2710 nM.
For the compound `COc1cccc(-c2cc(=O)c3cc(N4CCN(C)CC4)ccc3[nH]2)c1`, the GI50 is 6030 nM and the TGI was greater than 100000 nM.
For the compound `NC(=O)c1nc(-c2c(F)cccc2Cl)oc1Nc1ccc(C(=O)N2CCOCC2)cc1`, the GI50 was 4330 nM and the TGI turned out to be 36700 nM.
Consider `C[C@@H]1C[C@H]2C(=O)O[C@@H](C)C(NC(=O)[C@H](Cc3cc(F)cc(F)c3)NC(=O)Nc3ccc(OS(=O)(=O)F)cc3)C(=O)N3CCC[C@H]3C(=O)N3CCO[C@H](C)[C@H]3C(=O)N[C@@H](CO)C(=O)N2C1` (stereo partly drawn) ({X24-CO}-[Phe(3,5-F2)][ξThr(3S)]P[X25]S[Pro(4R-Me)]; ester 2-C), for which the 50% growth inhibitory concentration (GI50) was 416 nM and the TGI amounted to 5810 nM.
As for `Nc1c(C(=O)Nc2ccccc2)sc2nc3c(cc12)C(=O)CCC3`, the GI50 was 161 nM and the TGI is 611 nM.
In the case of `Cc1ccc2ccc3c4ccccc4ccc3c2c1`, the GI50 is 16100 nM and the TGI was 40400 nM.
On the same counts, the results for `COc1cc(OC)c(S(N)(=O)=O)cc1C(=O)/C=C/c1ccc(C)cc1` are 1960 nM and 7030 nM.
For `COc1ccc(-c2cnc(-c3ccncc3-c3cccc(OC)c3)o2)cc1`, in that order: 178 nM and 10400 nM.
On the same counts, the results for `COc1cc([C@@H]2c3cc4c(cc3[C@H](SC(=N)N)[C@H]3COC(=O)[C@H]23)OCO4)cc(OC)c1OC` are 106 nM and 2570 nM.
In the case of `NC1=NC(c2ccccc2Cl)c2c(n[nH]c2N)N1` (centres undefined), the GI50 was 11100 nM and the TGI turned out to be 99600 nM.
For `O=C(NNc1nc2cc(F)ccc2n2c(CN3CCC(O)C3)ccc12)c1cnccn1` (centres undefined), in that order: 815 nM and 7630 nM.
On the same counts, the results for `C[C@]12CCc3nc(Nc4ccc(O)cc4)sc3C1=CC[C@@H]1[C@@H]2CC[C@]2(C)/C(=N/NC(N)=S)CC[C@@H]12` are 1300 nM and 3020 nM.
On the same counts, the results for `O=C1Nc2ccc(-c3cccnc3)cc2/C1=C/c1cc(Br)c(O)c(Br)c1` are 6020 nM and 16100 nM.
Take `OCc1ccc(-c2ccc(-c3ccc(CO)o3)o2)o1`: the GI50 was 764 nM and the TGI was determined as 3050 nM.
For `O=c1[nH]c(=S)[nH]c(O)c1/C=C1\C=Nc2ccccc21`, in that order: 14400 nM and 31100 nM.
Take `C/C(=N/NC(N)=S)c1ccc(Nc2nc(SCC(C)C)nc(-c3ccc(F)cc3)c2C#N)cc1`: the GI50 was 1060 nM and the TGI stood at 7700 nM.
With `N#CN1CC[C@H](C(=O)Nc2ncc(-c3ccccc3)s2)C1`, the GI50 was 177 nM and the concentration for total growth inhibition (TGI) worked out at 423 nM.
On the same counts, the results for `O=C(Nc1ccc(-n2cc(-c3ccncc3)c(-c3ccc(Cl)c(O)c3)n2)cc1)c1cc(C(F)(F)F)cc(C(F)(F)F)c1` are 2160 nM and 7600 nM.
Turning to `COC(=O)[C@]12CC[C@@H](C)[C@H](C)[C@@H]1C1=CC[C@@H]3[C@@]4(C)C(C=O)=C[C@@](C)(COS(C)(=O)=O)C4=CC[C@@]3(C)[C@]1(C)CC2`, the GI50 was 247 nM and the TGI was 752 nM.
For `O=c1[nH]c2ccccc2cc1-c1nnc(Cc2ccccc2)o1`, in that order: 2290 nM and 9870 nM.
On the same counts, the results for `CCOC(=O)[C@@H](C)C[C@H](Cc1ccccc1)NC(=O)c1csc([C@@H](C[C@H](C(C)C)N(C)C(=O)CNC(=O)[C@H]2CCCCN2C)OC(C)=O)n1` are 216 nM and 736 nM.
On the same counts, the results for `Cn1cc(-c2ccc3ncc(-c4ccc(CC(=O)Nc5cc(C(C)(C)C)nn5C)cc4)cc3c2)cn1` are 799 nM and greater than 20000 nM.
`CC(=O)Nc1cccc(C#Cc2cncnc2Nc2ccc(OCc3cccc(F)c3)c(Cl)c2)c1`: the GI50 is 1140 nM and the TGI is 5670 nM.
For the compound `Nc1ncnc2c1c(-c1ccc(Oc3ccccc3)cc1)nn2CC1SSCC1O` (centres undefined), the GI50 is 801 nM and the TGI came out at 2020 nM.
For `CCc1ccc(Oc2c(-c3ccc(OCc4ccc(Cl)cc4)cc3O)nn(C)c2C(F)(F)F)cc1`, in that order: 337 nM and 1620 nM.
As to `Cc1cc(NC(=O)NC(=O)c2ccccc2NC(=O)CN(C)C)ccc1Oc1ncc(Br)cn1`, the GI50 was 3620 nM and the TGI is greater than 100000 nM.
On the same counts, the results for `C#COc1cccc(Nc2ncnc3cc(NC(=O)[C@@H](C)Cl)ccc23)c1` are 13500 nM and 50800 nM.
On the same counts, the results for `COc1ccc([C@@]23Oc4cc(OC)cc(OC)c4[C@]2(O)[C@H](O)[C@H](C(=O)N(C)C)[C@H]3c2ccccc2)cc1` are 15.1 nM and 141 nM.
Regarding `Cc1ccccc1Nc1cc(O)c2c(=O)cc(-c3ccccc3)oc2c1`, the GI50 was 379 nM and the TGI worked out at 3030 nM.
On the same counts, the results for `CCN(CC)CCCC(Nc1c2ccc(Cl)cc2nc2ccc(OC)cc12)c1ccc(Cl)cc1` (centres undefined) are 352 nM and 1190 nM.
For `CCOC(=O)c1cc(C(=O)c2ccc(OC)c(OC)c2)n2c1ccc1ccc3cccnc3c12`, in that order: 2830 nM and greater than 100000 nM.
With `COC(=O)c1ccc(NC(N)=NCCC(C)(C)c2ccc(C(F)(F)F)cc2)nc1`, the GI50 is 1100 nM and the TGI is 2790 nM.
For `Cc1ccc(C(=O)Nc2ccc(Oc3cc4cnn(C)c4cc3-c3cn[nH]c3)c(F)c2)c(=O)n1-c1ccc(F)cc1`, in that order: 3200 nM and greater than 100000 nM.
Turning to `O=C(CI)NC(=O)NC(=O)NCc1ccccc1`, the GI50 was 2120 nM and the TGI came out at 4660 nM.
For the compound `CN(C)CCCOc1ccc(NC2=C(Cl)C(=O)C(Nc3ccc(OCCCN(C)C)cc3)=C(Cl)C2=O)cc1`, the GI50 is 360 nM and the TGI was 1260 nM.
